Source: patent US10035759B2, “Method of chromatographic separation” (The Procter & Gamble Company, priority 2015, dated 2018)

Test system: human TRPM8
Assay: TRPM8 FLIPR assay: intracellular Ca2+ level in HEK-293 cells stably transfected with human TRPM8
Type: cell-based
Details: dose 30 uM
Method: TRPM8 activation was determined by measuring intracellular calcium ion (Ca^2+) level from transfected cells with the TRPM8 receptor gene, as described in CELL CULTURE PROTOCOL EXAMPLE, the results of which are shown in TABLES 2 and 3.
To determine what effect, if any, test compounds had on TRPM8 (SEQ ID NO: 1) activation the protocols listed below were used.
TRPM8 Protocol-FLIPR Assay
To determine whether TRPM8 is activated, the intracellular calcium ion (Ca^2+) level was measured from transfected cells with the TRPM8 receptor sequence (SEQ ID NO: 1). HEK-293 (human embryonic kidney) cells stably transfected with human TRPM8 were grown in 15 ml growth medium (high glucose DMEM (Dulbecco's Modification of Eagle's Medium) supplemented with 10% FBS (fetal bovine serum), 100 ug/ml penicillin/streptomycin, 5 μg/ml blasticindin, and 100 μg/ml zeocin) in a 75 cm^2 flask for 3 days at 37° C. in a mammalian cell culture incubator set at 5% CO2. Cells were detached with addition of 2 ml of trypsin-EDTA buffer (GIBCO® 25200, Invitrogen, Grand Island, N.Y.) for about 2-3 min. Trypsin was inactivated by addition of 8 ml growth medium. Cells were transferred to a 50 ml tube and centrifuged at 850 rpm for 3 minutes to remove medium. After centrifugation, a pellet of cells was formed in the bottom of the tube separating them from the supernatant solution. […] Fluo-4 AM is a fluorescent dye used for quantifying cellular Ca^2+ concentrations in the 100 nM to 1 microM range. […]
The pelleted cells were re-suspended in 10 ml assay buffer and 90 al aliquots (˜50,000 cells) per well delivered to a 96-well assay plate containing 10 al of test compounds (1 mM in assay buffer, […]) or buffer control and incubated at room temperature for 30 minutes. After 30 minutes, a plate was placed into a fluorometric imaging plate reader (FLIPR TETRA from Molecular Devices, Sunnyvale, Calif.) and basal fluorescence recorded (excitation wave length 488 nm and emission wave length 510 nm). Then 20 μl of 180 μM solution of TRPM8 agonist WS5 coolant was added to the assay buffer and the fluorescence signals were automatically recorded by FLIPR. For determining the direct effect of test compounds on TRPM8, fluorescence was measured immediately after addition of each compound (TABLES 2 and 3). Additional discussion of the FLIPR method can be found in Smart et al., Characterization using FLIPR of human vanilloid VR1 receptor pharmacology, European Journal of Pharmacology 417, 51-58 (2001) and Liu et al., Development and validation of a platelet calcium flux assay using a fluorescent imaging plate reader, Analytical Biochemistry 357, 216-224 (2006).

CCOC(=O)CNC(=O)C1CC(C)CCC1C(C)C (stereo not shown) [WS-5, N-ethoxycarbonylmethyl-ρ-menthan-3-carboxamide]
100.0%: 50 sec % of WS5 (50 sec) | 3 min % of WS5 (3 min) | 5 min % of WS5 (5 min) | 10 min % of WS5 (10 min)
